Results from article PMC6920847, “2-Hydroxy-N-phenylbenzamides and Their Esters Inhibit Acetylcholinesterase and Butyrylcholinesterase” (Biomolecules, 2019).
Where two headings read alike, the source gives them in different places.

Legend:
[1] = target: T1, AChE from electric eel (EeAChE) (Electrophorus electricus, UniProt O42275); assay: Inhibition of AChE, modified Ellman's spectrophotometric method; assay type: biochemical, electric eel (Electrophorus electricus L.); settings: for Selectivity AChE/BuChE: SI = IC50 for AChE/IC50 for BuChE, SI lower than 1 means selectivity for AChE
T1 construct: Acetylcholinesterase was obtained from electric eel (Electrophorus electricus L.); purchased Sigma-Aldrich (Prague, Czech Republic); host or cells: electric eel (natural source)
Procedure: (§1) The IC50 values were determined using the spectrophotometric Ellman’s method modified according to Zdražilová et al., which is a simple, rapid and direct method to determine the SH and -S-S- group content in proteins. This method is widely used for the screening of the efficiency of cholinesterases inhibitors. The enzymatic activity is measured indirectly by quantifying the concentration of the 5-thio-2-nitrobenzoic acid ion formed in the reaction between the thiol reagent 5,5′-dithio-bis(2-nitrobenzoic acid) and thiocholine, a product of substrate hydrolysis (i.e., acetylthiocholine; ATCH) by cholinesterases.
(§2) The enzyme activity in final reaction mixture (2000 µL) was 0.2 U/mL, concentration of acetylthiocholine (or butyrylthiocholine, BTCH) 40 µM and concentration of 5,5′-dithio-bis(2-nitrobenzoic acid) 0.1 mM for all reactions. The tested compounds were dissolved in DMSO and then diluted in demineralized water to the concentration of 1 µM. […] All measurements were carried in triplicate and the average values of reaction rate (v0-uninhibited reaction, vi-inhibited reaction) were used for construction of the dependence v0/vi vs. concentration of inhibitor. From obtained equation of regression curve, the value of IC50 was calculated (based on the definition of IC50).
(§3) Acetylcholinesterase was obtained from electric eel (Electrophorus electricus L.) and butyrylcholinesterase was from an equine serum.
(§4) Thirty-six benzamides 1–4l were evaluated as potential inhibitors of AChE from electric eel (EeAChE) and BuChE from equine serum (EqBuChE) using Ellman’s spectrophotometric method modified according to Zdražilová et al.. Their efficacy is expressed as IC50, i.e., the concentration required for 50% inhibition of the enzymatic activity. Based on inhibition of both cholinesterases, we calculated selectivity indexes (SI) as the ratio of IC50 value for AChE/IC50 value for BuChE to express the selectivity quantitatively (Table 1).

[2] = target: T2, BuChE from equine serum (EqBuChE) (Equus caballus, UniProt P81908); assay: Inhibition of BuChE, modified Ellman's spectrophotometric method; assay type: biochemical; settings: mean ± SD, n = three experiments
T2 construct: butyrylcholinesterase was from an equine serum; purchased Sigma-Aldrich (Prague, Czech Republic); host or cells: equine serum (natural source)
Procedure: as §1, §2, §3, §4

[3] = mean ± SD, n = three experiments, read-out: IC50 (EeAChE)

T1 sequence (O42275 24-633): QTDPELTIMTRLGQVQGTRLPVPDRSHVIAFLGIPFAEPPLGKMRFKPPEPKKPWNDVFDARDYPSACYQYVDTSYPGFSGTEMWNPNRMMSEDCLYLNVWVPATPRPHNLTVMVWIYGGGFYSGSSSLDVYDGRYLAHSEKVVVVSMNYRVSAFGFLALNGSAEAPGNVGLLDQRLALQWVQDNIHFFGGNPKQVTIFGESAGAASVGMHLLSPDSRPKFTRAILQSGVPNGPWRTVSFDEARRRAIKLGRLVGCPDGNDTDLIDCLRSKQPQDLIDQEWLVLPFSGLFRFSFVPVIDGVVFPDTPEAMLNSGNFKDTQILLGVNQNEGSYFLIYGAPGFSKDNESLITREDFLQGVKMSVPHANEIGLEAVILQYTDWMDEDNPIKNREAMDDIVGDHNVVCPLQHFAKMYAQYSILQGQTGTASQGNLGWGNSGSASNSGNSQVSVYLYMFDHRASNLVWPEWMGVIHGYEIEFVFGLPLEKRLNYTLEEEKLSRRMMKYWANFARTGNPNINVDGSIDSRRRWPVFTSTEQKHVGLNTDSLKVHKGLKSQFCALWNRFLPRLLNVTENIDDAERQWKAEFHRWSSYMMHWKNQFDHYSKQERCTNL
T2 sequence (P81908 whole entry): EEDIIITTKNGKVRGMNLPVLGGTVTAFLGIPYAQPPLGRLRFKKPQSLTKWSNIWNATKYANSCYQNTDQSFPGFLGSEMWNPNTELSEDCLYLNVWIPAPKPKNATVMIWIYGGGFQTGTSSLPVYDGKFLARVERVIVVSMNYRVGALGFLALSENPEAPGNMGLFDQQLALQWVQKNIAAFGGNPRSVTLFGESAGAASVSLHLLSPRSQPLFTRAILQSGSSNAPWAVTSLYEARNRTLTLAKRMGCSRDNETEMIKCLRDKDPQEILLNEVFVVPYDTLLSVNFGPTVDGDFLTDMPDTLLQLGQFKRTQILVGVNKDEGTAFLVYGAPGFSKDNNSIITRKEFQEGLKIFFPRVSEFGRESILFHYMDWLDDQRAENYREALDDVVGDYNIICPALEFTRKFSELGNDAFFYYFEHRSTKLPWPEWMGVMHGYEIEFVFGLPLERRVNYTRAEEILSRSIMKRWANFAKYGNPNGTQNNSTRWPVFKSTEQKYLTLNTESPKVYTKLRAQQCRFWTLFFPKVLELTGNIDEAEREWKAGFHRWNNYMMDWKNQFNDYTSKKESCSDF

## O=C(Nc1cc(Cl)cc(Cl)c1)c1cc(Br)ccc1O [Compound 4d, 5-Bromo-N-(3,5-dichlorophenyl)-2-hydroxybenzamide]
[1]
  Selectivity AChE/BuChE: 0.24
[1]; [3]
  IC50: 33.1 ± 0.47 µM
[2]; read-out: IC50 (EqBuChE)
  IC50: 135.9 ± 0.14 µM

## O=C(Nc1ccc(Br)cc1)c1ccc(Cl)cc1O [Compound 3g]
[1]
  IC50: 58.3 ± 1.57 µM
  Selectivity AChE/BuChE: 0.34
[2]; IC50 (EqBuChE)
  IC50: 174 ± 4.02 µM

## O=C(Nc1ccc(Cl)c(Cl)c1)c1ccc(Cl)cc1O [Compound 3c]
[1]
  Selectivity AChE/BuChE: 0.46
[1]; [3]
  IC50: 46.3 ± 0.56 µM
[2]; read-out: IC50 (EqBuChE)
  IC50: 100 ± 1.15 µM

## O=C(Nc1ccc(C(F)(F)F)cc1)c1ccc(Cl)cc1O [Compound 3k, 4-chloro-2-hydroxy-N-[4-(trifluoromethyl)phenyl]benzamide]
[1]
  IC50: 60.3 ± 2.39 µM
  Selectivity AChE/BuChE: 0.30
[2]; IC50 (EqBuChE)
  IC50: 200 ± 2.02 µM

## O=C(Nc1cc(Cl)c(Cl)c(Cl)c1)c1cc(Br)ccc1O [Compound 4e, 5-Bromo-N-(3,4,5-trichlorophenyl)-2-hydroxybenzamide]
[1]
  Selectivity AChE/BuChE: 0.30
[1]; [3]
  IC50: 42.1 ± 2.41 µM
[2]; read-out: IC50 (EqBuChE)
  IC50: 140 ± 6.2 µM

## O=C(Nc1ccccc1)c1ccccc1O [Compound 1, salicylanilide]
[1]
  Selectivity AChE/BuChE: 0.24
[1]; [3]
  IC50: 49.7 ± 3.73 µM
[2]; read-out: IC50 (EqBuChE)
  IC50: 206 ± 12.1 µM

## O=C(Nc1ccc(Cl)c(Cl)c1)c1cc(Cl)ccc1O [Compound 2c]
[1]
  Selectivity AChE/BuChE: 0.33
[1]; [3]
  IC50: 60.8 ± 6.88 µM
[2]; read-out: IC50 (EqBuChE)
  IC50: 186 ± 15.7 µM

## O=C(Nc1ccc(Cl)cc1)c1ccc(Cl)cc1O [Compound 3b]
[1]
  IC50: 56.2 ± 3.23 µM
  Selectivity AChE/BuChE: 0.37
[2]; IC50 (EqBuChE)
  IC50: 152 ± 3.13 µM

## O=C(Nc1cccc(Cl)c1)c1cc(Cl)ccc1O [Compound 2a]
[1]
  Selectivity AChE/BuChE: 0.26
[1]; [3]
  IC50: 59.5 ± 3.8 µM
[2]; read-out: IC50 (EqBuChE)
  IC50: 228 ± 11.3 µM

## O=C(Nc1cccc(Br)c1)c1cc(Br)ccc1O [Compound 4f]
[1]
  IC50: 69.7 ± 9.97 µM
  Selectivity AChE/BuChE: 0.48
[2]; IC50 (EqBuChE)
  IC50: 146 ± 3.53 µM

## O=C(Nc1cccc(Br)c1)c1cc(Cl)ccc1O [Compound 2f]
[1]
  IC50: 50.03 ± 0.15 µM
  Selectivity AChE/BuChE: 0.35
[2]; IC50 (EqBuChE)
  IC50: 141 ± 1.13 µM

## O=C(Nc1cccc(Cl)c1)c1cc(Br)ccc1O [Compound 4a]
[1]
  IC50: 62 ± 6.48 µM
  Selectivity AChE/BuChE: 0.46
[2]; IC50 (EqBuChE)
  IC50: 134 ± 1.63 µM

## O=C(Nc1ccc(Br)cc1)c1cc(Br)ccc1O [Compound 4g]
[1]
  Selectivity AChE/BuChE: 0.63
[1]; [3]
  IC50: 70.3 ± 2.85 µM
[2]; read-out: IC50 (EqBuChE)
  IC50: 112 ± 1.79 µM

## O=C(Nc1ccc(F)cc1)c1cc(Cl)ccc1O [Compound 2i]
[1]
  IC50: 48.3 ± 8.9 µM
  Selectivity AChE/BuChE: 0.36
[2]; IC50 (EqBuChE)
  IC50: 133 ± 15.8 µM

## O=C(Nc1ccc(F)cc1)c1cc(Br)ccc1O [Compound 4i]
[1]
  IC50: 61.2 ± 1.08 µM
  Selectivity AChE/BuChE: 0.45
[2]; IC50 (EqBuChE)
  IC50: 137 ± 1.47 µM

## O=C(Nc1ccc(Cl)cc1)c1cc(Cl)ccc1O [Compound 2b]
[1]
  IC50: 76.5 ± 2.17 µM
  Selectivity AChE/BuChE: 0.45
[2]; IC50 (EqBuChE)
  IC50: 170 ± 3.09 µM

## O=C(Nc1cc(C(F)(F)F)cc(C(F)(F)F)c1)c1ccc(Cl)cc1O [Compound 3l]
[1]
  Selectivity AChE/BuChE: 0.36
[1]; [3]
  IC50: 54.7 ± 2.05 µM
[2]; read-out: IC50 (EqBuChE)
  IC50: 150.5 ± 0.87 µM

## O=C1c2ccc(Cl)cc2OP(=O)(c2ccccc2)N1c1ccc(C(F)(F)F)cc1 (racemic) [Compound 5d, (RS)-7-Chloro-2-phenyl-3-[4-(trifluoromethyl)phenyl]-3-hydrobenzo[e][1,3,2]oxazaphosphinin-4-one 2-oxide]
[1]
  Selectivity AChE/BuChE: 1.93
[1]; [3]
  IC50: 48.1 ± 1.7 µM
[2]; read-out: IC50 (EqBuChE)
  IC50: 25 ± 0.3 µM

## O=C(Nc1cccc(F)c1)c1cc(Br)ccc1O [Compound 4h]
[1]
  IC50: 54.4 ± 0.73 µM
  Selectivity AChE/BuChE: 0.46
[2]; IC50 (EqBuChE)
  IC50: 119 ± 2.53 µM

## O=C1c2ccc(Cl)cc2OP(=S)(c2ccccc2)N1c1ccc(C(F)(F)F)cc1 (racemic) [Compound 5e, (RS)-7-Chloro-2-phenyl-3-[4-(trifluoromethyl)phenyl]-3-hydrobenzo[e][1,3,2]oxazaphosphinin-4-one 2-sulfide]
[1]
  Selectivity AChE/BuChE: 0.37
[1]; [3]
  IC50: 63.5 ± 1.41 µM
[2]; read-out: IC50 (EqBuChE)
  IC50: 170 ± 13.6 µM

## O=C(Nc1cccc(C(F)(F)F)c1)c1cc(Cl)ccc1O [Compound 2j]
[1]
  IC50: 54.41 ± 0.25 µM
  Selectivity AChE/BuChE: 0.45
[2]; IC50 (EqBuChE)
  IC50: 120 ± 3.02 µM
